pIC50: −log10 of the molar value. Where “and” joins values, the source holds several entries; their conditions need not be identical. Equal entries are not always repeated.
Test system: 388556-164-R-J1-PDC complex spheroid viability
Assay: Anticancer human tumor 388556-164-R-J1-PDC patient-derived colon adenocarcinoma cell line growth inhibition [RAS]
Conditions: for viability, T/C: stronger effect = lower value
Text: RAS pathway inhibitors in Combinations in Complex Spheroids
A high-throughput screen of multi-cell type tumor spheroids was designed to identify active combinations of RAS pathway inhibitors and targeted small molecules. Complex spheroids include a stromal component modeled by human endothelial cells (HUVEC) and fibroblasts modeled by human mesenchymal stem cells (MSCs). The concentration ranges selected for each drug and investigational agent were based upon clinically achievable concentrations if the clinical Cmax of the agent was known.
Compounds. The drugs and investigational agents: abemaciclib (NSC768073), cobimetinib (NSC768068), divarasib (GDC6063, NSC841802), docetaxel (NSC628503), GDC-1971 (RLY-1971, NSC841576), gemcitabine (NSC613327), inavolisib (NSC800729), ipatasertib (NSC767898), KB-0742 (NSC834161), MRTX-1133 (NSC836407), osimertinib (NSC779217), RMC-4630 (NSC839698), RMC-6236 (NSC851965), RMC-6291 (NSC852671), Ro-3306 (NSC812927), sapanisertib (NSC764658), SN-38 (NSC673596), staurosporine (NSC755774), SY5609 (NSC837396), and tovorafenib (DAY101, NSC766906), were obtained from the National Cancer Institute (NCI) Developmental Therapeutics Program Chemical Repository. The FDA-approved anticancer drug set is available from the NCI Developmental Therapeutics Program. […] The stock solutions were prepared in dimethyl sulfoxide (DMSO, Sigma-Aldrich, St. Louis, MO, cat. D2650) at 800-fold the tested concentration and stored at -70 degrees C prior to their use. All drugs and investigational agents were tested over a range starting from a high concentration at or near the clinical Cmax and decreasing in half-log increments. If the clinical Cmax for an agent had not been determined, the highest concentration tested was 10 microM.
Cell Culture. All cells were maintained in an incubator at 37 degrees C and 5% CO2 with 95% humidity. The PDC lines were cultured according to standard operating procedures established by the NCI PDMR. All PDCs were thawed and cultured in Matrigel-coated flasks prepared with a working solution of 1X Ham's F-12 nutrient mix, without supplementation (Invitrogen, Waltham, MA, cat. 11765054), 100 U/mL penicillin-streptomycin (Invitrogen, cat. 15140122), and 2.5% Matrigel (Corning Inc., Corning, NY, cat. 354248) for the first three passages. The 362531-283-R-J2-PDC and 782815-120-R-J1-PDC lines were cultured in 6C/Colon 1B media, which includes advanced DMEM/F-12 (Thermo Fisher Scientific, cat. 12634028), 10 mM HEPES (Thermo Fisher Scientific, cat. 15630080), 1X GlutaMAX supplement (Thermo Fisher Scientific, cat. 35050061), 0.1 mg/mL primocin (InvivoGen, San Diego, CA, cat. ant-pm-2), 10% defined fetal bovine serum, heat inactivated (HyClone Laboratories Inc., Logan, UT, cat. SH30070.03HI), 50% L-WRN conditioned media (ATCC, cat. CRL-3276), 1.25 mM N-Acetyl-L-cysteine (Sigma-Aldrich, cat. A9165), 10 mM nicotinamide (Sigma-Aldrich, cat. N0636), 1X B-27 supplement (Thermo Fisher Scientific, cat. 17504044), 1X N-2 supplement (Thermo Fisher Scientific, cat. 17502048), 50 ng/mL human EGF (Thermo Fisher Scientific, cat. PHG0311), and 10 microM Y-27632 dihydrochloride (Tocris Bioscience, cat. 1254). The K12877-001-R-J1-PDC line was cultured in 6I media, which includes all 6C/Colon 1B media plus 10 ng/mL human FGF-10 (PeproTech, cat. 100-26), 1 ng/mL human FGF-2 (PeproTech, cat. 100-18B), 1 µM prostaglandin E2 (Tocris Bioscience, cat. 2296), […] hydrocortisone (Sigma-Aldrich, cat. H4001), and […] bovine insulin (Sigma-Aldrich, cat. I6634). The K86415-001-R-J1-PDC line was cultured in 6D media, which includes all 6C/Colon 1B media components minus the L-WRN conditioned media. The 485176-168-R4-J1-PDC was cultured in PANC media, which includes all 6C/Colon 1B media plus 100 ng/mL human FGF-10 (PeproTech, cat. 100-26), 500 nM SB-431542 (Selleckchem, cat. S1067), and 10 nM gastrin (Tocris Bioscience, cat. 3006). […]
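Note: spheroids exposed to compound for 7 days before readout.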
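Throughout, for viability, T/C: 100% = DMSO vehicle control luminescence.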

Row | SMILES | viability, T/C (compound 0.00316 µM) | viability, T/C (compound 0.01 µM) | viability, T/C (compound 0.0316 µM) | viability, T/C (compound 0.1 µM) | viability, T/C (compound 0.316 µM) | viability, T/C (compound 1 µM) | pIC50 (curve of compound) | viability, T/C (compound 0.000949 µM) | viability, T/C (compound 0.003 µM) | viability, T/C (compound 0.00949 µM) | viability, T/C (compound 0.03 µM) | viability, T/C (compound 0.0949 µM) | viability, T/C (compound 0.3 µM) | IC50 (curve of compound) | IC50 (compound alone, run of 08/26/2024) | pIC50 (compound alone, run of 08/20/2024) | viability, T/C (compound 3.16 µM) | viability, T/C (compound 10 µM)
1 | CCN1CCN(Cc2ccc(Nc3ncc(F)c(-c4cc(F)c5nc(C)n(C(C)C)c5c4)n3)nc2)CC1 | 99% and 107% and 91.4% | 103% and 96.9% and 102% | 100% and 93.8% and 103% | 97.8% and 98.6% and 93.7% | 83.3% and 90.2% and 96.2% | 91.3% and 82.5% and 92.3% | < 6.00 | – | – | – | – | – | – | – | – | – | – | –
2 | CCc1c2c(nc3ccc(O)cc13)-c1cc3c(c(=O)n1C2)COC(=O)[C@]3(O)CC | – | – | – | – | – | – | – | 108% [middle of 4 runs] | 93.6% [middle of 4 runs] | 84.6% [middle of 4 runs] | 68.7% [middle of 4 runs] | 50.5% [middle of 4 runs] | 32% [middle of 4 runs] | 90.4 nM [middle of 4 runs] | – | – | – | –
3 | CCn1c(-c2cc(N3CCN(C)CC3)cnc2C(C)OC)c2c3cc(ccc31)-c1csc(n1)CC(NC(=O)C1CC1C)C(=O)N1CCCC(N1)C(=O)OCC(C)(C)C2 (stereo not given) | – | – | – | – | – | – | – | 99% [middle of 8 runs] | 92% [middle of 8 runs] | 78.5% [middle of 8 runs] | 62.5% [middle of 8 runs] | 45.2% [middle of 8 runs] | 34.4% [middle of 8 runs] | – | 68.6 nM [middle of 8 runs] | – | – | –
4 | CCn1c(-c2cccnc2C(C)OC)c2c3cc(ccc31)N1CCOC(CC(NC(=O)C(C(C)C)N(C)C(=O)C3(F)CCN(C(=O)C#CC(C)(C)N(C)C)CC3)C(=O)N3CCCC(N3)C(=O)OCC(C)(C)C2)C1 (stereo not given) | – | – | – | – | – | – | – | 105% [middle of 6 runs] | 107% [middle of 6 runs] | 106% [middle of 6 runs] | 102% [middle of 6 runs] | 106% [middle of 6 runs] | 100% [middle of 6 runs] | – | – | < 6.52 | – | –
5 | C[C@@H](NC(=O)c1ncnc(N)c1Cl)c1ncc(C(=O)Nc2cc(C(F)(F)F)c(Cl)cn2)s1 | – | – | 106% [middle of 4 runs] | 112% [middle of 4 runs] | 121% [middle of 4 runs] | 118% and 115% (2×) and 132% | < 5.00 | – | – | – | – | – | – | – | – | – | 116% [middle of 4 runs] | 97.4% [middle of 4 runs]
6 | NC1c2ccccc2OC12CCN(c1cnc3c(N4CCCc5ncccc54)n[nH]c3n1)CC2 (stereo not given) | – | – | 70% [middle of 4 runs] | 59.9% [middle of 4 runs] | 48.8% [middle of 4 runs] | 41.2% [middle of 4 runs] | – | – | – | – | – | – | – | 242 nM [middle of 4 runs] | – | – | 43.6% [middle of 4 runs] | 37.6% [middle of 4 runs]
7 | Nc1ccn(C2OC(CO)C(O)C2(F)F)c(=O)n1 (stereo not given) | 97.9% [middle of 4 runs] | 93.1% [middle of 4 runs] | 81.8% [middle of 4 runs] | 79% [middle of 4 runs] | 74.7% [middle of 4 runs] | 70.2% [middle of 4 runs] | < 6.00 | – | – | – | – | – | – | – | – | – | – | –
8 | O=C(c1ccc(F)c(F)c1Nc1ccc(I)cc1F)N1CC(O)([C@@H]2CCCCN2)C1 | – | 93.1% [middle of 4 runs] | 82.8% [middle of 4 runs] | 56.3% [middle of 4 runs] | 40.9% [middle of 4 runs] | 22.8% [middle of 4 runs] | – | – | – | – | – | – | – | 164 nM [middle of 4 runs] | – | – | – | –

Reference: PubChem BioAssay AID2060907 (Molecular Pharmacology Branch, DTP, NCI, 2025)
